Assay results taken from paper PMC8308925 (Pharmaceuticals, 2021).
Converted amounts (≈) assume the structure as drawn. Read-outs that look alike come from different tables or passages of the source.

What was measured:
OATP1B3 [1] = target: T1, OATP1B3 (Homo sapiens, UniProt Q9NPD5); experiment: in vitro
T1 sequence (Q9NPD5 1-702): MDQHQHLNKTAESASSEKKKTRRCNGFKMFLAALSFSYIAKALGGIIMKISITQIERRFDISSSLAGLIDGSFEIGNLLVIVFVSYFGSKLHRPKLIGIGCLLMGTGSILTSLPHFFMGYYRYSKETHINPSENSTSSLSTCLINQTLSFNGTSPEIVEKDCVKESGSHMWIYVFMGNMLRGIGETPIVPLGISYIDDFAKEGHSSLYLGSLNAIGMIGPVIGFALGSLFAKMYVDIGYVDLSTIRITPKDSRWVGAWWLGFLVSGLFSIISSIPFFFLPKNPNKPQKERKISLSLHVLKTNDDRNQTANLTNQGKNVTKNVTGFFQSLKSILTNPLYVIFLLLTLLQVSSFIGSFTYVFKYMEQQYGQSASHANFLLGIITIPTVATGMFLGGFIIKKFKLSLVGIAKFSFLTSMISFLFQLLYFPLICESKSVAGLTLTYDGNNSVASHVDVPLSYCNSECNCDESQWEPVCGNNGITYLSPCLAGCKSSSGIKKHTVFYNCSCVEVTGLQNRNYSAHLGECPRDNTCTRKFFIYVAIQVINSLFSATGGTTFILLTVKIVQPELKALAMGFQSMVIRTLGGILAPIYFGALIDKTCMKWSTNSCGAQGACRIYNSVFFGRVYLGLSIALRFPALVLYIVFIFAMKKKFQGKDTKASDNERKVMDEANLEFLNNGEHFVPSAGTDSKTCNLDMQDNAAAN
Description: (§1) For the experiments, 0.8 × 10^5 cells per well were seeded in poly-D-lysine coated 24-well plates, except for HEK293-ASBT cells, where 1 × 10^5 cells per well were seeded in poly-D-lysine coated 24-well plates. After incubation for 48 h, the medium was removed and the cells were washed with DPBS and preincubated for 10 min in DPBS at 37 °C.
(§2) Cells were disintegrated in 150 µL of 70% acetonitrile containing internal standard (IS; 200 nM of chenodeoxycholic acid). The cells were sonicated for 3 s and centrifuged at 13,000 rpm for 10 min. An aliquot (5 µL) from the supernatant (100 µL) was injected into LC-MS/MS system.
(§3) The sample preparation method is as stated above.
(§4) Vmax represents the maximum velocity at saturating substrate concentration, [S] represents the substrate concentration, Km represents the substrate concentration at half Vmax, and CLdiffusion represents the passive diffusion clearance.

CYP2E1 = CYP2E1 (Homo sapiens, UniProt P05181); experiment: biochemical
Sequence of CYP2E1 (P05181 whole entry): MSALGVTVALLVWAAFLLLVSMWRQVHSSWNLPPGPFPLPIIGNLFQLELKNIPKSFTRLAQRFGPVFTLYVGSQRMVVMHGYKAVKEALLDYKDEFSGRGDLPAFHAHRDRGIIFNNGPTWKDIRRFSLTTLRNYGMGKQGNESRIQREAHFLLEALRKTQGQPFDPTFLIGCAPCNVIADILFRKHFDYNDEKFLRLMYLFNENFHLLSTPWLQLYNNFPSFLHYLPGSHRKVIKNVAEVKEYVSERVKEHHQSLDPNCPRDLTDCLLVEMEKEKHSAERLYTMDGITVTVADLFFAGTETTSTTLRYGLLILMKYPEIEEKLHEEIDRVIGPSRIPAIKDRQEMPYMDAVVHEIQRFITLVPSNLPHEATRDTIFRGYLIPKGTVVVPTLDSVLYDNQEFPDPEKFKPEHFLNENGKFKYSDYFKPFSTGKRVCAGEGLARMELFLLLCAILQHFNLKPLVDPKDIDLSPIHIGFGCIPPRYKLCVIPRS

OATP1B3 [2] = target: T1, OATP1B3
ASBT [3] = target: T2, ASBT (Homo sapiens, UniProt Q12908); experiment: Uptake of MT921 and probe substrate in HEK 293-ASBT cells (substrate specificity, kinetics); assay type: in vitro ADME; settings: ASBT-mediated MT921 uptake, 5–100 µM
T2 sequence (Q12908 1-348): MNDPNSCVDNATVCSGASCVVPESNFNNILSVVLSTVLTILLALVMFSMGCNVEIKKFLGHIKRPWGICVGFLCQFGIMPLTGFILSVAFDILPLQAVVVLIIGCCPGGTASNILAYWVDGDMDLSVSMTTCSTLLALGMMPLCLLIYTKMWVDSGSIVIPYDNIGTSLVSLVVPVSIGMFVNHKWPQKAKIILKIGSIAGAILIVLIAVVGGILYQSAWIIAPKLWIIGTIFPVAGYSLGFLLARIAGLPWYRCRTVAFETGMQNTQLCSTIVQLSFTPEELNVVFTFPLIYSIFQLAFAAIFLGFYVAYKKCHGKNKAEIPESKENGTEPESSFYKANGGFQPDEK
Description: as §1, §2, §3, §4

NTCP = target: T3, NTCP (Homo sapiens, UniProt Q14973); experiment: Uptake of MT921 and probe substrate in HEK 293-NTCP cells (substrate specificity, kinetics)
T3 sequence (Q14973 1-349): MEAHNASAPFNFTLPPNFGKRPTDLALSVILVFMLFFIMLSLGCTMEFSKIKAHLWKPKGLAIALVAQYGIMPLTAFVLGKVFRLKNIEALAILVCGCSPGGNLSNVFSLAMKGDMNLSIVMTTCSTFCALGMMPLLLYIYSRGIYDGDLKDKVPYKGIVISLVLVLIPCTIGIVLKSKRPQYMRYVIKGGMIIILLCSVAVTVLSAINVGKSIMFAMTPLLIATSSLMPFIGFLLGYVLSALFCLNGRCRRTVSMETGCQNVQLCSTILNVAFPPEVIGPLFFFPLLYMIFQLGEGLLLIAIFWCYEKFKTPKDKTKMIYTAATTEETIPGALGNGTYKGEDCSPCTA
Description: as §1, §2, §3, §4

OATP1B1 = target: T4, OATP1B1 (Homo sapiens, UniProt Q9Y6L6); experiment: in vitro
T4 sequence (Q9Y6L6 1-691): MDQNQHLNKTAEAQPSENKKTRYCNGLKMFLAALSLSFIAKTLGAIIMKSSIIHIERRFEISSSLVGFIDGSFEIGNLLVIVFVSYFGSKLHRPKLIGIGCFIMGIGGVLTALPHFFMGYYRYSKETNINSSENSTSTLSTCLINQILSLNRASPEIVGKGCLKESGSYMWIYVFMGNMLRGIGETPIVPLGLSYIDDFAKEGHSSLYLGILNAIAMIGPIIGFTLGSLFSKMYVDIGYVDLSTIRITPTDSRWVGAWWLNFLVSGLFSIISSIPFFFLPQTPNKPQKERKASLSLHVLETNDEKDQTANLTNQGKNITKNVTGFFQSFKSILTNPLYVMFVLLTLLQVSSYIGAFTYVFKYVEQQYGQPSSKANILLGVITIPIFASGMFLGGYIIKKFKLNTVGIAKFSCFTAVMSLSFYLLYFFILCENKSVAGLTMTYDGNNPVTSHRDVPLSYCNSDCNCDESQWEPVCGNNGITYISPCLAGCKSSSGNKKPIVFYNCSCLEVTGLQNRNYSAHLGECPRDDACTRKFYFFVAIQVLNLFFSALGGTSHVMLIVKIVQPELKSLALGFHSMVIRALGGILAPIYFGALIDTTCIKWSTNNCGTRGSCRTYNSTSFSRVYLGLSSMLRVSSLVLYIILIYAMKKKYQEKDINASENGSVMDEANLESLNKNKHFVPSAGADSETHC

CYP2C8 = target: T5, CYP2C8 (Homo sapiens, UniProt P10632); settings: read-out: Positive control IC50; Rosiglitazone hydroxylation; in-house data, similar to the reference values [1]
T5 sequence (P10632 1-490): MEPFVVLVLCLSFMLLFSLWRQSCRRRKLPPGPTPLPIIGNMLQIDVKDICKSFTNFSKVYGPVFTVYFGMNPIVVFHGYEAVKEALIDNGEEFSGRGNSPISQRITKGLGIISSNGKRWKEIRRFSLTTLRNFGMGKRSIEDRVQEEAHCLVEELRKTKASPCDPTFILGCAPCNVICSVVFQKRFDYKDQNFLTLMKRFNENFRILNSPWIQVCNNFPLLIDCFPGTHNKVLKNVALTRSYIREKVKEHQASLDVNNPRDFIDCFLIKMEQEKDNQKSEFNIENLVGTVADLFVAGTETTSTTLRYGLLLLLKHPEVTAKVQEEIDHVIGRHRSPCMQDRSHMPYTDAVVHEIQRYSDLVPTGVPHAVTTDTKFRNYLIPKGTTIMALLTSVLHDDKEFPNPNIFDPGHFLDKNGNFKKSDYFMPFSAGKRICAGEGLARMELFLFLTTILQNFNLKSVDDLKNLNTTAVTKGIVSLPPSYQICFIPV

ASBT [4] = target: T2, ASBT; settings: inhibition of ASBT, implemented in DDI model; ref [61]; cited from earlier work
[5] = amlodipine PBPK model parameter, cited from earlier work
[6] = cited from earlier work
[7] = substrate: C[C@H](CCC(=O)O)[C@H]1CC[C@H]2[C@@H]3[C@H](O)C[C@@H]4C[C@H](O)CC[C@]4(C)[C@H]3C[C@H](O)[C@]12C; experiment: cells, lysate or membranes named; settings: other: OAT3-mediated MT921 uptake, 5–300 µM, modified Michaelis–Menten fit; 37.0 °C
[8] = Literature, ref [33] (supplement list)

Molecule: C[C@]12CC[C@@H]3c4ccc(O)cc4CC[C@H]3[C@@H]1CC[C@@H]2O[C@@H]1O[C@H](C(=O)O)[C@@H](O)[C@H](O)[C@H]1O
- Increase of probe substrate uptake rate in transporter-expressing cells compared to mock cells (OATP1B3 [1]; 0.06 µM probe substrate, HEK 293-OATP1B3): 9.6 fold

Molecule: CCN(CC)C(=S)S [Diethyldithio-carbamate]
- IC50 (CYP2E1): 16.7 µM

Molecule: C[C@H](CCC(=O)O)[C@H]1CC[C@H]2[C@@H]3[C@H](O)C[C@@H]4C[C@H](O)CC[C@]4(C)[C@H]3C[C@H](O)[C@]12C [MT921, cholic acid]
- IC50 (OATP1B3 [2]): 38.3 µM
- Ki (OATP1B3 [2]): 38.2 µM
- Km (OATP1B3 [1]; OATP1B3-mediated MT921 uptake, 5–100 µM, modified Michaelis–Menten fit): 27.4 µM
- intrinsic clearance (Vmax/Km) (OATP1B3 [1]; human): 3.46 µL/mg protein/min
- Km at 10 min (OATP1B3 [1]; human, Km, OATP1B3-mediated MT921 uptake, 5–100 µM, modified Michaelis–Menten fit): 27.4 µM
- Vmax (ASBT [3]): 302.31 pmol/mg protein/min
- Vmax (NTCP; NTCP-mediated MT921 uptake, 5–100 µM): 409.28 pmol/mg protein/min
- CLdiffusion (NTCP; passive diffusion clearance, HEK 293-NTCP): 1.27 µL/mg protein/min
- IC50 at 5 min (OATP1B1): 63.2 µM

Molecule: O=c1c(O)c(-c2ccc(O)c(O)c2)oc2cc(O)cc(O)c12 [Quercetin]
- IC50 (CYP2C8): 8.47 µM

Molecule: C[C@H](CCC(=O)NCCS(=O)(=O)O)[C@H]1CC[C@H]2[C@@H]3[C@H](O)C[C@@H]4C[C@H](O)CC[C@]4(C)[C@H]3C[C@H](O)[C@]12C [[^3H]taurocholate]
- Increase of probe substrate uptake rate in transporter-expressing cells compared to mock cells (NTCP; 0.8 µM probe substrate, HEK 293-NTCP): 102.1 fold

Molecule: CCOC(=O)C1=C(COCCN)NC(C)=C(C(=O)OC)C1c1ccccc1Cl (centres unmarked) [amlodipine]
- Ki (ASBT [4]): 42.1 µM
- Fraction unbound [5, 8]: 0.07
- Log P [5, 8]: 3.43 Log units
- Solubility ([5]; extracted from published literature, no reference given): 75.3 µg/mL (≈ 184 µM)
- Cmax Obs ([6]; 2.5 mg po (tab), sd, ref [28] (supplement list)): 1.94 ng/mL
- Cmax Obs ([6]; 5 mg po (tab), sd, first line of the study, ref [27] (supplement list)): 3.56 ng/mL
- Cmax Obs ([6]; 5 mg po (tab), sd, ref [17] (supplement list)): 2.36 ng/mL
- Cmax Obs ([6]; 5 mg po (tab), sd, ref [20] (supplement list)): 3.18 ng/mL
- Cmax Obs ([6]; 5 mg po (tab), sd, ref [23] (supplement list)): 2.44 ng/mL
- Cmax Obs ([6]; 5 mg po (tab), sd, ref [25] (supplement list)): 2.54 ng/mL
- Cmax Obs ([6]; 5 mg po (tab), sd, ref [30] (supplement list)): 3.07 ng/mL
- Cmax Obs ([6]; 5 mg po (tab), sd, second line of the study, ref [27] (supplement list)): 3.64 ng/mL
- Cmax Obs ([6]; 10 mg po (tab), md, ref [16] (supplement list)): 18.77 ng/mL
- Cmax Obs ([6]; 10 mg po (tab), md, ref [21] (supplement list)): 18.73 ng/mL
- Cmax Obs ([6]; 10 mg po (tab), sd, first line of the study, ref [22] (supplement list)): 5.32 ng/mL
- Cmax Obs ([6]; 10 mg po (tab), sd, ref [17] (supplement list)): 5.13 ng/mL
- Cmax Obs ([6]; 10 mg po (tab), sd, ref [18] (supplement list)): 5.51 ng/mL
- Cmax Obs ([6]; 10 mg po (tab), sd, ref [19] (supplement list)): 5.40 ng/mL
- Cmax Obs ([6]; 10 mg po (tab), sd, ref [20] (supplement list)): 6.85 ng/mL
- Cmax Obs ([6]; 10 mg po (tab), sd, ref [24] (supplement list)): 8.13 ng/mL
- Cmax Obs ([6]; 10 mg po (tab), sd, ref [26] (supplement list)): 6.41 ng/mL
- Cmax Obs ([6]; 10 mg po (tab), sd, ref [29] (supplement list)): 4.92 ng/mL
- Cmax Obs ([6]; 10 mg po (tab), sd, second line of the study, ref [22] (supplement list)): 4.37 ng/mL

B1: OAT3 (Homo sapiens) (protein)
chain: MTFSEILDRVGSMGHFQFLHVAILGLPILNMANHNLLQIFTAATPVHHCRPPHNASTGPWVLPMGPNGKPERCLRFVHPPNASLPNDTQRAMEPCLDGWVYNSTKDSIVTEWDLVCNSNKLKEMAQSIFMAGILIGGLVLGDLSDRFGRRPILTCSYLLLAASGSGAAFSPTFPIYMVFRFLCGFGISGITLSTVILNVEWVPTRMRAIMSTALGYCYTFGQFILPGLAYAIPQWRWLQLTVSIPFFVFFLSSWWTPESIRWLVLSGKSSKALKILRRVAVFNGKKEEGERLSLEELKLNLQKEISLAKAKYTASDLFRIPMLRRMTFCLSLAWFATGFAYYSLAMGVEEFGVNLYILQIIFGGVDVPAKFITILSLSYLGRHTTQAAALLLAGGAILALTFVPLDLQTVRTVLAVFGKGCLSSSFSCLFLYTSELYPTVIRQTGMGVSNLWTRVGSMVSPLVKITGEVQPFIPNIIYGITALLGGSAALFLPETLNQPLPETIEDLENWSLRAKKPKQEPEVEKASQRIPLQPHGPGLGSS
- Km [7]: 133.33 µM
- Vmax/Km [7]: 1.28 µL/mg protein/min
